The target of one experiment is T1, Erk2.
T1 construct: teils als Volllängenkinasen, teils als verkürzte Fragmente - mindestens aber bestehend aus der funktionellen Kinasedomäne; purchased Upstate 14-173
Kind of experiment: Cell-free kinase assay Erk2-ALPHA (ALPHA technology). The format is biochemical, human. To be noted: 10µM ATP. The source says: (§1) Die inhibitorische Wirkung der erfindungsgemäßen Verbindungen wurde an diversen humanen Serin/ Threonin-, Tyrosin- und Lipidkinasen in enzymatischen Assays getestet. Dabei wurden rekombinante humane Kinasen wie z.B. Erk2, Pl3Kalpha, - beta, -gamma, -delta, p38alpha, p38gamma, Jnk1, Jnk2 und andere eingesetzt, teils als Volllängenkinasen, teils als verkürzte Fragmente - mindestens aber bestehend aus der funktionellen Kinasedomäne. Die käuflichen Kinaseproteine (Proqinase, Upstate) wurden als rekombinante Fusionsproteine mit GST-(Glutathion-S-Transferase) oder His-Tag eingesetzt. Je nach Substrattyp wurden die verschiedenen Kinasereaktionen mittels geeigneter ALPHA™-beads (PerkinElmer) quantifiziert.
(§2) Nachfolgend wird die Substanztestung am Erk-Assay genauer beschrieben. Ausgewählte Testergebnisse der Erk2-, PI3Kalpha-Assays sind unten aufgeführt. […] Anschließend wurde die Kinasereaktion durch Zugabe von 10µl des mit anti-phospho MBP-Antikörpers (320pM, #05-429/ Upstate) präinkubierten ALPHA-Beadmixes (10µg/ml, #6760617/ PerkinElmer) in 25mM Tris, 200mM NaCl, 100mM EDTA und 0.3% BSA abgestoppt und über Nacht stehen gelassen. • b) PI3K-ALPHAs (z.B. PI3Kalpha): Die Testsubstanz, 1ng PI3Kalpha (#14-602, Upstate), 100µM ATP und 20µM PIP2-Substrat (#P4508, Echelon) auf einer 384er Optiplate (PerkinElmer) für 1h in 50mM Hepes, 50mM NaCl, 5mM MgCl2, 0.05% Chaps, 5mM DTT bei pH 7.4 inkubiert. Anschließend wurde die Kinasereaktion durch Zugabe des mit 1nM GST:Grp1-Fusionsprotein (Upstate) und 15nM biotinyliertem PIP3 (#C-39B6/ Echelon) präinkubierten ALPHA-Beadmixes (10µg/ml, #6760603/ PerkinElmer) in 50mM Hepes, 50mM NaCl, 50mM EDTA und 0.1% BSA abgestoppt und über Nacht stehen gelassen.
(§3) Die Fluoreszenzdetektion erfolgte am nächsten Morgen in einem Fusion™alpha-Gerät (PerkinElmer).
(§4) Die Berechnung der %-Inhibitionswerte je Substanz-Konzentration geschah mittels folgender Formel aus den im Fusion™alpha ermittelten Rohdaten: % Kinase Inhibition(Probe) = 100-(100×(MittelwertProbe -Mittelwert0% Kontrolle)/(Mittelwert100% Kontrolle -Mittelwert0% Kontrolle)) [formula]
(§5) Die Kontrollen wurden jeweils 8fach, die Substanzproben jeweils 2fach bestimmt. Die 0%-Kontrolle enthielt entweder kein ATP oder kein Substrat, die 100%-Kontrolle enthielt keine Testsubstanz. Die IC50-Werte wurden mit GraphPadPrism ermittelt.

Another experiment concerns the target T2, PI3Kalpha (Homo sapiens, UniProt P42336).
T2 construct: teils als Volllängenkinasen, teils als verkürzte Fragmente - mindestens aber bestehend aus der funktionellen Kinasedomäne; purchased Upstate 14-602
Kind of experiment: Cell-free kinase assay PI3K-ALPHA (ALPHA technology). In kind it is biochemical. To be noted: 100µM ATP.
From the text: as §1, §2, §3, §4, §5

Another experiment has as its system BxPC3. Put plainly: Cellular anti-proliferative XTT assay. The format is cell-based. To be noted: Homo sapiens, BXPC-3, 45h incubation. The source says:
(§6) Das Prinzip dieses Testes beruht auf der intrazellulären Reduktion des Tetrazolium-Farbstoffes XTT (Natrium 3'-[1-(phenylaminocarbonyl)-3,4-tetrazolium]-bis(4-methoxy-6-nitro)benzensulfonsäure, Sigma) zu einem Formazan-Farbstoff durch mitochondriale Dehydrogenasen. Der Farbstoff wird nur von stoffwechselaktiven Zellen gebildet, seine photometrisch messbare Intensität ist ein quantitativer Indikator für das Vorhandensein lebender Zellen. Die Reduzierung der Farbstoffbildung durch Inkubation der Zellen mit Substanzen dient als Parameter für die anti-proliferative Wirkung.
(§7) Die Tumorzelllinien (ATCC) wurden in 96er Mikrotiterplatten in definierter Zellzahl (5000 Zellen/ Well für BxPC3 und Hct116; 10000 Zellen/ Well für MDA MB468) eingesäat und anschließend über Nacht im Brutschrank bei 37°C, 5% CO2 und 95% Luftfeuchtigkeit inkubiert. Die Testsubstanzen wurden als Stammlösungen (10 mM) in DMSO angesetzt. […] Die Zellplatten wurden dann für 45h im Brutschrank bei 37°C, 5% CO2 und 95% Luftfeuchtigkeit inkubiert.
(§8) Für die Detektionssreaktion wurde das Substrat XTT mit PMS (N-Methyl Dibenzopyrazine Methylsulfat, Sigma) versetzt und zu den Zellen gegeben, sodass eine finale Konzentration von 325µg XTT/ml und 2.5µg PMS/ml resultierte. Es wurde dann für 3h bei 37°C, 95% Luftfeuchte inkubiert. Anschließend konnte das durch zelluläre Dehydrogenasen gebildete Formazan Salz bei einer Adsorption bei 490nm quantifiziert werden.
(§9) Die Auswertung der %-Inhibitions-Werte geschah mittels folgender Formel aus den Werten für die jeweils gemessenen optischen Dichten bei 490nm: % Inhibition Zellproliferation(Probe) = 100-(100×(MittelwertProbe -Mittelwert0% Kontrolle)/(Mittelwert100% Kontrolle -Mittelwert0% Kontrolle)) [formula]
(§10) Die Kontrollen wurden jeweils 8fach, die Substanzproben jeweils 2fach bestimmt. Die 0%-Kontrolle enthielt keine Zellen, die 100%-Kontrolle enthielt keine Testsubstanz. Die EC50-Werte wurden mit GraphPadPrism ermittelt.

A further experiment relates to Hct116. Kind of experiment: Cellular anti-proliferative XTT assay. Conditions: Homo sapiens, HCT-116, 45h incubation. In kind it is cell-based.
From the text: as §6, §7, §8, §9, §10

For another experiment, the system named is MDA-MB468. Kind of experiment: Cellular anti-proliferative XTT assay. The format is cell-based. To be noted: Homo sapiens, MDA-MB-468, 45h incubation.
From the text: as §6, §7, §8, §9, §10

T1 sequence (P63085 2-358 limits assumed): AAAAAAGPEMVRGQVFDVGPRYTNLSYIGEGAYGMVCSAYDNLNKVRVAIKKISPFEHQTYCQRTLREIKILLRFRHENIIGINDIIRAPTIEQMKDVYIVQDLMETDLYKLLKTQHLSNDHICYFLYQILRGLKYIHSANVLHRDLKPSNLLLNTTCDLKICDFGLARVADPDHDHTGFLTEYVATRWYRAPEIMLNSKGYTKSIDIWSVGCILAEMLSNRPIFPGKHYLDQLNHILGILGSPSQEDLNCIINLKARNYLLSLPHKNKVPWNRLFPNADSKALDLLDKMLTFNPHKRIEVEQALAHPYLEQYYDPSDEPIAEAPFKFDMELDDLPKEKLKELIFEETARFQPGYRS
T2 sequence (P42336 whole entry, the tested form may be a part): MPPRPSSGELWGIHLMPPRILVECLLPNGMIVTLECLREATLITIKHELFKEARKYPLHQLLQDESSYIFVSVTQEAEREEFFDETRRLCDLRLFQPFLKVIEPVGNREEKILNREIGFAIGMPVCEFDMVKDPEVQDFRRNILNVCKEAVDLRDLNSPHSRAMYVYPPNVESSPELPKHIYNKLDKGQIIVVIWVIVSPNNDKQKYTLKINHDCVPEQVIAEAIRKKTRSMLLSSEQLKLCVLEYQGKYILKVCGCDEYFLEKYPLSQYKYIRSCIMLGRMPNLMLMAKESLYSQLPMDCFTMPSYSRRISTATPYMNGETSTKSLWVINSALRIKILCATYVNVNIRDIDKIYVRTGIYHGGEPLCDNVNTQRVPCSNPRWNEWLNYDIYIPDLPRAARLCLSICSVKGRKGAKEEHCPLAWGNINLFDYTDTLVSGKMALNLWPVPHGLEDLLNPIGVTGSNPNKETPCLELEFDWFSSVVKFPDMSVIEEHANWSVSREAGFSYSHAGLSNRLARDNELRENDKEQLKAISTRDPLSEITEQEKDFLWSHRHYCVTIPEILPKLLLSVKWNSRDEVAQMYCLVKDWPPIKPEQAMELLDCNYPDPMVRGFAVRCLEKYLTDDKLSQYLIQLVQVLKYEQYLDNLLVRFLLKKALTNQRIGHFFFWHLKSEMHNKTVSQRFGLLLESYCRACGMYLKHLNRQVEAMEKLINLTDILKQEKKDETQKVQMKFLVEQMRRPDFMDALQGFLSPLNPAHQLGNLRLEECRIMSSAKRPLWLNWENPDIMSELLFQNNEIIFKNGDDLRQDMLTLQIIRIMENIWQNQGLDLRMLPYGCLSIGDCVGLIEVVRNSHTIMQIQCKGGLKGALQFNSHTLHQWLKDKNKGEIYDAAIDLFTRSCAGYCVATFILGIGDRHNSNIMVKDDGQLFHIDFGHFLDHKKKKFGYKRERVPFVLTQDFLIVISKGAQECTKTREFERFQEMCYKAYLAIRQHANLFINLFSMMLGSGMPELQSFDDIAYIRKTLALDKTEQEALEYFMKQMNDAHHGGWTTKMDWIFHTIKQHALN
T2 sequence (P27986 whole entry partner, the tested form may be a part): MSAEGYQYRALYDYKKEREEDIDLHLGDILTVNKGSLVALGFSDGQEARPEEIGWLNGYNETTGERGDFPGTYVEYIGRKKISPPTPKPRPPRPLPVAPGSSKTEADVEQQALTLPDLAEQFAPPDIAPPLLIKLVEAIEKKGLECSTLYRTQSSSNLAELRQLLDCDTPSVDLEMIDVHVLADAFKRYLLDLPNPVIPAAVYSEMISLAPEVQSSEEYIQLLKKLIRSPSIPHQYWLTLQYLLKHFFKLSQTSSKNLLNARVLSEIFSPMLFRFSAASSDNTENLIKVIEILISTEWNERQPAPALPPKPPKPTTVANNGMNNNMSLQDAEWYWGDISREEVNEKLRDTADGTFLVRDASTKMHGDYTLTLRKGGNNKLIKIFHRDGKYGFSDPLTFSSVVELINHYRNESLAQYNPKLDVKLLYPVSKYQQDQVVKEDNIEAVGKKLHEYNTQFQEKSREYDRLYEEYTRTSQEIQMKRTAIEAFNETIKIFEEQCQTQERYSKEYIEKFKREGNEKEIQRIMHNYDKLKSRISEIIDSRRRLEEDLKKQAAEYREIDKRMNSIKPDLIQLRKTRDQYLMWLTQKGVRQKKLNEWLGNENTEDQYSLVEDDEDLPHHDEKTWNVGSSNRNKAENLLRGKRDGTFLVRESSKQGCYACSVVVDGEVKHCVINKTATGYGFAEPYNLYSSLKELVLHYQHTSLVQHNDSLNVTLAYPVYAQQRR

In the case of `CCNC(=O)Nc1ccc2ncc(C#CC3CC3)nc2n1` [Beispiel 3, 1-(3-Cyclopropylethynyl-pyrido[2,3-b]pyrazin-6-yl)-3-ethyl-harnstoff], the half-maximal inhibitory concentration (IC50) is 5.8 µM against Erk2 and 16.8 µM against PI3Kalpha.

`CCNC(=O)Nc1ccc2ncc(C=CCOC)nc2n1` [Beispiel 6, 1-Ethyl-3-[3-((E)-3-methoxy-propenyl)-pyrido[2,3-b]pyrazin-6-yl]-harnstoff]: at PI3Kalpha, half-maximal inhibition (IC50) required 21.3 µM.

Consider `CONC(=O)Nc1ccc2ncc(-c3ccccc3)nc2n1` [Beispiel 7, 1-Methoxy-3-(3-phenyl-pyrido[2,3-b]pyrazin-6-yl)-harnstoff], for which the figures for the IC50 at Erk2 and against PI3Kalpha were 0.407 µM and 27.9 µM, respectively.

Consider `C=CCONC(=O)Nc1ccc2ncc(-c3ccccc3)nc2n1` [Beispiel 8, 1-Allyloxy-3-(3-phenyl-pyrido[2,3-b]pyrazin-6-yl)-harnstoff], for which the figures for the 50% inhibitory concentration (IC50) on Erk2 and at PI3Kalpha were 4.1 µM and 27.2 µM, respectively.

Turning to `CCNC(=O)Nc1ccc2ncc(-c3ccc(OC(=O)OC)cc3)nc2n1` [Beispiel 9, Kohlensäure-4-[6-(3-ethyl-harnstoff)-pyrido[2,3-b]pyrazin-3-yl]-phenyl-methyl-ester], the 50% inhibitory concentration (IC50) on Erk2 was 0.117 µM; on PI3Kalpha it was 7.8 µM. Further, the results for the EC50 in the experiment on BxPC3, with Hct116 and in the experiment on MDA-MB468 were 20 µM, 10 µM and 15 µM, respectively.

For the compound `CCNC(=O)Nc1ccc2ncc(-c3ccc(OC(=O)OCCOC)cc3)nc2n1` [Beispiel 10, Kohlensäure-4-[6-(3-ethyl-harnstoff)-pyrido[2,3-b]pyrazin-3-yl]-phenyl-(2-methoxy-ethyl)-ester], the IC50 was found to be 0.088 µM at Erk2 and 2.6 µM against PI3Kalpha. Also, the EC50 was determined as 9 µM in the experiment on BxPC3, 5 µM in the experiment with Hct116 and 7 µM in the experiment on MDA-MB468.

Take `CCNC(=O)Nc1ccc2ncc(-c3ccc(OC(=O)Oc4ccccc4)cc3)nc2n1` [Beispiel 11, Kohlensäure-4-[6-(3-ethyl-harnstoff)-pyrido[2,3-b]pyrazin-3-yl]-phenyl-phenyl-ester]: the IC50 against Erk2 is 0.27 µM; against PI3Kalpha, more than 31.6 µM.

On to `CCNC(=O)Nc1ccc2ncc(-c3ccc(OC(=O)N(CC)CC)cc3)nc2n1` [Beispiel 12, Diethyl-carbaminsäure-4-[6-(3-ethyl-harnstoff)-pyrido[2,3-b]pyrazin-3-yl]-phenyl-ester], for which the figures for the IC50 on Erk2 and against PI3Kalpha were 2.8 µM and 3.4 µM, respectively.

For the compound `CCNC(=O)Nc1ccc2ncc(-c3ccc(OC(=O)C=Cc4ccccc4)cc3)nc2n1` [Beispiel 13, (E)-3-Phenyl-acrylsäure-4-[6-(3-ethyl-harnstoff)-pyrido[2,3-b]pyrazin-3-yl]-phenyl-ester], the IC50 at PI3Kalpha was more than 31.6 µM.
